Source: patent publication US20250282742A1, “BENZOFURAN DERIVATIVES FOR TARGETING AUTOPHAGY” (Automera PTE. LTD, priority 2024, published 2025)

What was measured:
[1] = tested on: LC3 protein (LC3-II/LC3-I) in HeLa cells; experiment: LC3 lipidation assay (LC3-II/LC3-I, Western blot, 24 h treatment); format: cell-based; conditions: fold change in LC3-II/LC3-I relative to DMSO control
Procedure: HeLa cells were seeded in 6-well plates (700,000 cells) and allowed to adhere overnight. Media was replaced one hour before administering either vehicle (DMSO) or test compounds. After 24 hours of treatment, the media was discarded, and cells were rinsed once with ice-cold 1×PBS before detached from plates with ice-cold RIPA Lysis and Extraction Buffer (Thermo Fisher Scientific) which was supplemented with protease and phosphatase inhibitors. The resulting cell suspensions were transferred to pre-chilled microcentrifuge tubes, incubated on ice for 20 min with intermittent mixing and then centrifuged at 12,000 rpm for 20 min at 4° C. The supernatants were then aspirated slowly and transferred into new tubes kept on ice. The protein concentration in the samples was determined using BCA kit (Thermo Fisher Scientific) as per manufacturer's instructions.
For the p62 oligomerization and LC3 lipidation assays, cell lysates were prepared using RIPA buffer supplemented with 2% SDS and benzonase (Sigma). The lysates were then combined with 4× Laemmli protein sample buffer (Bio-Rad), heated at 70° C. for 10 min and subjected to a brief centrifugation of 10-15 seconds.
For p62 oligomerization and LC3 lipidation assays, lysates containing 30 μg of protein and for BRD4 and FKBP12(F36V) degradation assays, lysates containing 20 μg of protein, were loaded slowly into the wells of 4-20% gradient Tris-glycine gels (Bio-Rad). The gels were run at 100V until completion and transferred onto PVDF membranes. Membranes were blocked using 5% milk in TBS-Tween (0.1%) buffer at room temperature for 1 hour. The membranes were incubated with primary antibody in 5% milk-TBST with shaking, overnight at 4° C. The primary antibodies used were: p62 (Novus Biologicals 2C11, H00008878-MO1), LC3A/B (Cell Signalling Technology D3U4C, 12741S), FKBP12 (Abcam ab24373), BRD4 (Cell Signalling Technology E2A7X, 13440S), GAPDH (Cell Signalling Technology D4C6R, 97166S), and β-Actin (Proteintech 66009-1-Ig). Following primary antibody incubation, membranes were washed thrice with TBST 10 min before and after incubation with secondary-HRP conjugated antibody in 5% milk-TBST for 1 hour at room temperature. The secondary antibodies used were: Anti-Mouse IgG HRP Conjugate (Promega W4021B) and Anti-Rabbit IgG HRP Conjugate (Promega W4011B). For the p62 oligomerization assay, the total protein levels were assessed using Ponceau staining (Thermo Fisher Scientific) of PVDF membrane as per recommendation by manufacturer's guidelines.
Imaging was acquired using SuperSignal™ West Pico PLUS Chemiluminescent Substrate (Thermo Fisher Scientific) with iBright Invitrogen FL100 imaging system. Band signal intensity, reflective of protein concentrations, were quantified using Invitrogen™ iBright™ Analysis and Image J software.
HeLa cells were treated with compounds for 24 hours to evaluate the effect of these compounds on LC3-II/LC3-I levels, a measure of autophagy activation. The changes in levels of LC3-I, LC3-II and β-Actin (loading control) were assessed by Western blotting, as described in experimental procedures. The fold increase of LC3-II/LC3-I levels induced by compound treatment relative to vehicle control (DMSO) was determined and summarized in Table 9. Specifically, FIGS. 3A-C show Western blot images and their corresponding quantification showing the lipidation levels of LC3 protein (LC3-II/LC3-I) by 24 hours compound treatments at listed concentrations, relative to vehicle control (DMSO) in HeLa cells.

p62 puncta in HeLa cells = experiment: p62 puncta assay (immunocytochemistry and imaging, EVOS M7000 or Operetta CLS); format: cell-based; conditions: Homo sapiens, fold change in p62 puncta levels relative to DMSO control, 24 hr
Procedure: HeLa cells were seeded in coated 96-well plates (10,000 cells) and allowed to adhere overnight. After 24 hours of treatment with either vehicle (DMSO) or test compounds, the media was discarded, and cells were rinsed with ice-cold 1×PBS before fixation by 4% formaldehyde or paraformaldehyde for 20 min. Cells were then washed with 1×PBS and permeabilized with 0.1% Triton X-100 in PBS for 20 min and blocked with Blocking Buffer in PBS for 1 hour. The cells were incubated thereafter for 1 hour with anti-p62 primary antibody in Blocking Buffer, followed by incubation with secondary antibody for 1 hour. DAPI dye was used to visualize nuclei of fixed cells. The blocking buffer used were 5% Fetal Bovine Serum (FBS, ThermoFIsher Scientific, 10270106) and Li-cor Intercept (PBS) Blocking Buffer (Li-cor, 927-70001). The primary antibody used was mouse anti-p62 primary antibody (Novus Biologicals, H00008878-MO1). The secondary antibodies used were goat anti-mouse Alexa Fluor Plus 488 secondary antibody (Invitrogen, GOXMS) and goat anti-mouse Alexa Fluor 488 secondary antibody (Invitrogen, A-11029). The DAPI dyes used were DAPI dye (Invitrogen, 62248) and DAPI dye (Invitrogen, D1306).
For the EVOS M7000 System, cells were imaged on the EVOS M7000 microscope using a 20× air objective (Nikon, N.A 0.45). DAPI and p62 channels were illuminated with LED light cubes using integrated hard-coated filter sets for DAPI (357/447 nm) and GFP (470/525 nm) respectively. Images were analysed for p62 puncta count on the Celeste 6.0 software.
For the Operetta CLS System, cells were imaged on the Operetta CLS using a 63× water objective on the DAPI and Alexa 488 channels. Images were analysed for p62 puncta count on the Harmony 5.1 software.
HeLa cells were treated with compounds for 24 hours to evaluate the effect of these compounds on p62 puncta activity. The resulting changes in levels of p62 puncta were assessed by imaging, either on the EVOS M7000 or Operetta CLS systems as described in experimental procedures. The fold change of p62 puncta levels induced by compound treatment relative to vehicle control (DMSO) was determined and summarized in Table 10.

Row | Structure (SMILES) | LC3 lipidation [1] | fold induction at 5 µM (p62 puncta in HeLa cells)
1 | OCCNCc1ccc2cc(-c3ccccc3)oc2c1 [Compound 2, 2-(((2-phenylbenzofuran-6-yl)methyl)amino)ethan-1-ol] | ++ (> 2-fold change in LC3-II/LC3-I relative to DMSO control) | > 2
2 | OCCNCc1ccc2cc(Cc3ccc(Cl)cc3)oc2c1 [Compound 13, 2-(((2-(4-chlorobenzyl)benzofuran-6-yl)methyl)amino)ethan-1-ol] | ++ (> 2-fold change in LC3-II/LC3-I relative to DMSO control) | > 2
3 | Cc1c(Cc2ccccc2)oc2cc(CNCCO)ccc12 [Compound 42, 2-(((2-benzyl-3-methylbenzofuran-6-yl)methyl)amino)ethan-1-ol] | + (< 2-fold change in LC3-II/LC3-I relative to DMSO control) | < 2
4 | OCCNCc1ccc2cc(CCc3ccc(F)cc3)oc2c1 [Compound 49, 2-(((2-(4-fluorophenethyl)benzofuran-6-yl)methyl)amino)ethan-1-ol] | + (< 2-fold change in LC3-II/LC3-I relative to DMSO control) | > 2
5 | OCCNCc1ccc2cc(Cc3ccccc3)oc2c1 [compound 1] | + (< 2-fold change in LC3-II/LC3-I relative to DMSO control) | > 2
6 | OCCNCc1ccc2cc(Cc3ccc(F)cc3)oc2c1 [compound 12] | + (< 2-fold change in LC3-II/LC3-I relative to DMSO control) | > 2
